Data published in patent publication US20220274983A1, “JAK KINASE INHIBITOR AND USE THEREOF” (JIANGSU CAREPHAR PHARMACEUTICAL CO., LTD., priority 2019, published 2022).
Counter-ions that a name gives are not always drawn.

Legend:
[1] = test system: rat CIA model; assay: Arthritis index (AI) of extremities in rat CIA model; settings: CIA rats, 2 mg/kg oral gavage once daily for 2 w, score 0-16;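 further: rats immunized with type II collagen plus complete Freund's adjuvant on day 0, boosted day 7, groups of 8, each paw graded 0-4 for swelling or redness, higher means worse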
Description: (§1) Lewis rats (female, 10-12 weeks old) were obtained from Beijing Vital River Laboratory Animal Technology Co., Ltd. The rats were on a light and dark alternation for 12 h, and the environment was kept at a temperature of 23±2° C. and a humidity of 40-70%.
(§2) Type II collagen solution (2 mg/mL) was prepared with 0.05 M acetic acid solution to allow to be fully dissolved, and placed overnight in the dark at 4° C. During the test, 2 mg/mL type II collagen (C II) solution and 4 mg/mL complete Freund's adjuvant (CFA) solution were mixed in equal volumes under ice bath conditions to fully emulsify. On day 0, an emulsion prepared by mixing equal volumes of C II (2 mg/mL) and CFA (4 mg/mL) was injected intracutaneously into the base of the tail of experimental rats for primary immunization, and on day 7, secondary booster immunization was performed.
(§3) The therapeutic effect of the test compound was tested in a rat CIA model. The rats were randomly divided into groups with 8 animals in each group. All animals were immunized on day 0 and boosted on day 7.
Foot volume was scored for the swelling of four toes at the same time, the score for each foot was 0-4, and the highest score for each rat was 16. 0—no swelling, normal appearance; 1—mild swelling or redness of the ankle joint, wrist joint or finger joint; 2—moderate swelling or redness of the ankle joint, wrist joint or finger joint; 3—severe swelling or redness of the ankle joint, wrist joint or finger joint; 4—very severe swelling or redness of the ankle joint, wrist joint or finger joint.

[2] = rat, in vivo, 2 mg/kg
Description: as §1, §2, §3
(§4) Therefore, the differences in body weight and foot volume after the onset of arthritis compared with the negative group, respectively, can be used to evaluate the therapeutic effect in the rat model. The experimental data were expressed as Mean±SEM; the data between the two groups was tested by unpaired t-test and p<0.05 was considered as a significant difference.

[3] = test system: rat CIA model; assay: Hindfoot foot volume in rat CIA model; type: in vivo, Lewis rats; settings: CIA rats, hindfoot, 2 mg/kg oral gavage once daily for 2 w
Description: as §1, §2, §3, §4

For C[C@@H]1CCN(C(=O)CC#N)C[C@@H]1N(C)c1ncnc2[nH]ccc12 [Tofacitinib, tofacitinib citrate, reference compound], the “Arthritis index/Day” value ([1]; day 0) was 0 ± 0, the “Arthritis index/Day” value ([1]; day 8) was 0 ± 0 and the “Arthritis index/Day” value ([1]; day 11) was 0.63 ± 0.32. The “Arthritis index/Day” value ([1]; day 14) was 3.75 ± 0.77, the “Arthritis index/Day” value ([1]; day 17) was 5.25 ± 0.62 and the “Arthritis index/Day” value ([1]; day 21) was 8.75 ± 0.59. The “Arthritis index/Day” value ([1]; day 24) was 8.75 ± 0.73, the “Arthritis index/Day” value ([1]; day 28) was 7.88 ± 0.58 and the “body weight course, in words” value [2] was “increased slightly on days 11-17, but then fell back”. The “Foot volume (ml)/Day” value ([3]; day 0) was 2.637 ± 0.020 mL, the “Foot volume (ml)/Day” value ([3]; day 8) was 2.619 ± 0.019 mL and the “Foot volume (ml)/Day” value ([3]; day 11) was 2.646 ± 0.045 mL. For the same compound, the “Foot volume (ml)/Day” value ([3]; day 14) was 3.848 ± 0.333 mL, the “Foot volume (ml)/Day” value ([3]; day 17) was 4.636 ± 0.306 mL and the “Foot volume (ml)/Day” value ([3]; day 21) was 4.710 mL. For the same compound, the “Foot volume (ml)/Day” value ([3]; day 24) was 4.509 mL and the “Foot volume (ml)/Day” value ([3]; day 28) was 4.125 mL.
